From US11548870B2, “Compounds useful as inhibitors of helios protein” (Bristol-Myers Squibb Company, priority 2019, dated 2023) come the findings set out here.

Structures are written as SMILES.

The target in one test is T1, Helios (Homo sapiens, UniProt Q96SW2+Q9UKS7).
T1 construct: fluorescently labelled antibodies against Helios and Ikaros; endogenous in cells; host or cells: Jurkat cells
The experiment in a line: Helios Cellular Degradation Assay (flow cytometry, Helios-PE antibody staining, 72 h). It is filed as cell-based. To be noted: Jurkat cells, 72 h incubation, flow cytometry; for Dmax: Jurkat, read-out: Helios Dmax. How it is done: (§1) Helios Cellular Degradation Assay
(§2) Jurkat cells were plated at 80,000 cells/well in 40 μL RPMI+10% FBS in a 384 well cell culture plate prior to using acoustic dispensing technology for adding compound of interest. Cell cultures were incubated for 72 h at 37° C. and 5% CO2. In order to facilitate analysis, cell cultures were spun down at 200 rpm for 5 min and the supernatant was discarded. After shaking the plate to dislodge the cell pellet, cells were resuspended in 50 μL of Fixation Buffer (eBioScience FoxP3 buffer set 0000) for 60 min at room temperature. After centrifuging and discarding the supernatant, cells were permeabilized with 50 μL of Permeabilization buffer (eBioScience FoxP3 buffer set 00-5523-00) for 10 min at room temperature. Following permeabilization, cells were spun down and the supernatant was replaced with 20 μL fluorescently labelled antibodies against Helios and Ikaros or corresponding Isotype controls in 1× Permeabilization buffer (Ikaros-Alexa488 [Biolegend, Cat #368408, 1:50], Helios-PE [CST, Cat #29360, 1:50]) and staining reactions were incubated for 1 h at room temperature; protected from light. Subsequently, 30 μL of 1× Permeabilization buffer was added prior to centrifuging the cells and discarding the supernatant. Stained cells were resuspended in 25 μL of flow cytometry staining buffer (PBS+0.2% BSA) and analyzed using an Intellicyt Ique Plus flow cytometer.
as §2, with “00-5523-00)” for “0000)”

A further test addresses T2, Ikaros (Homo sapiens, UniProt Q13422).
T2 construct: fluorescently labelled antibodies against Helios and Ikaros; endogenous in cells; host or cells: Jurkat cells
The experiment in a line: Helios Cellular Degradation Assay, Ikaros readout (flow cytometry, Ikaros-Alexa488 antibody staining, 72 h). The format is cell-based. The following applies: Jurkat cells, 72 h incubation, flow cytometry; for Dmax: Jurkat, read-out: Ikaros Dmax. On the procedure:
as §1, §2
as §2, with “00-5523-00)” for “0000)”

T1 sequence (Q9UKS7 whole entry): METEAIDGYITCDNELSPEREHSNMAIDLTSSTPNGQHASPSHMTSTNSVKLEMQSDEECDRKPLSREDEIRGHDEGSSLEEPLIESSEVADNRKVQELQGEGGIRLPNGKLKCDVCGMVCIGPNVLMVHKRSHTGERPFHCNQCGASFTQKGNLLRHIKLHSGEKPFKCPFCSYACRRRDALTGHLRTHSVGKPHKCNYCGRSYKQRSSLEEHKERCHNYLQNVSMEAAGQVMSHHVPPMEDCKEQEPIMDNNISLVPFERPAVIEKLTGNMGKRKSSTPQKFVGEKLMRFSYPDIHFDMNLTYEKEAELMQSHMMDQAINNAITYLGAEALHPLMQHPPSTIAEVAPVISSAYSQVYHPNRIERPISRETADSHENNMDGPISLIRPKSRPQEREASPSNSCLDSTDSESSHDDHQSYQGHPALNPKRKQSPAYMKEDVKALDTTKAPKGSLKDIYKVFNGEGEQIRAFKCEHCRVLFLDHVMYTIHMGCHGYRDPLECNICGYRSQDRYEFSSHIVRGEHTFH
T1 sequence (Q96SW2 whole entry): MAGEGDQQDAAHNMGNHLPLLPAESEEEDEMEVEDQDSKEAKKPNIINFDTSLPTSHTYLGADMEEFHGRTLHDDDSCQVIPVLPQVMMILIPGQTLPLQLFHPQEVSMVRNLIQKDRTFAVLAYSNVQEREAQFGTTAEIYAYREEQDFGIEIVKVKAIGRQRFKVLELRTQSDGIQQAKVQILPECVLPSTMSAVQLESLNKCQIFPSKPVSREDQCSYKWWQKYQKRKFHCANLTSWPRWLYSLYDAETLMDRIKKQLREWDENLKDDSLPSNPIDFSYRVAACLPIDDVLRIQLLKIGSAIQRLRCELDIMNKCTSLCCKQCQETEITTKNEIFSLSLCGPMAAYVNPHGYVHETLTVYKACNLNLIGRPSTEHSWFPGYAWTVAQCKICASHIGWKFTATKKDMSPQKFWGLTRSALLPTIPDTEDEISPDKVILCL
T1 sequence (Q16531 whole entry partner): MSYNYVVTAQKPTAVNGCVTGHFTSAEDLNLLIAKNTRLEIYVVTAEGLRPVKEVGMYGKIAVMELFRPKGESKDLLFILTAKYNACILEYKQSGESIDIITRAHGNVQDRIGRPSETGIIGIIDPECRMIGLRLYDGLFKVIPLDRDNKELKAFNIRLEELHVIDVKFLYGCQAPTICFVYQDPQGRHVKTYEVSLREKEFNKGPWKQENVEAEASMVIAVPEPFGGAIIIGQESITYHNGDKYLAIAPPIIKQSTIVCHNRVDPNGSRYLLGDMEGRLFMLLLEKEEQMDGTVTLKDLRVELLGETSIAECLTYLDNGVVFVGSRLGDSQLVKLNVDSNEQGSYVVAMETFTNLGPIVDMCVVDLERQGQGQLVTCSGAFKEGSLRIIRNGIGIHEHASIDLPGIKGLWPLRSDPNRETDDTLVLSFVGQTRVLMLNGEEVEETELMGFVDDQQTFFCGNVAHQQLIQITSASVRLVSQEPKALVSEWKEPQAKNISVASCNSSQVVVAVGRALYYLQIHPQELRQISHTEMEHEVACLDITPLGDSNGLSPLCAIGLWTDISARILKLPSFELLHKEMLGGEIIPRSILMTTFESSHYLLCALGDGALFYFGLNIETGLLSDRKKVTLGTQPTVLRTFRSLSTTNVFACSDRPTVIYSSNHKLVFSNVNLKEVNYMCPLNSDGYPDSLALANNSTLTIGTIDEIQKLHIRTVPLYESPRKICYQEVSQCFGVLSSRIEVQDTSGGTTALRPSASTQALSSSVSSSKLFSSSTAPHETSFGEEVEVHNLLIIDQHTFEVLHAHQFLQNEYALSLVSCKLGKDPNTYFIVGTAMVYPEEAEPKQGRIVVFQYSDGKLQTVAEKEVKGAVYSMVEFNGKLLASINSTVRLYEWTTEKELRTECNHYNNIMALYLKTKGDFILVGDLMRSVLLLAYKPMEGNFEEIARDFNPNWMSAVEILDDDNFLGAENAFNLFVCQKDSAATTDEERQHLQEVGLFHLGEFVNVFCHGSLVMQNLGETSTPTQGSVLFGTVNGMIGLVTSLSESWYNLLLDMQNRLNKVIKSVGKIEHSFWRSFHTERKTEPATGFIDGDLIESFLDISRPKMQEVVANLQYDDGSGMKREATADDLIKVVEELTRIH
T2 sequence (Q96SW2 whole entry partner): as the sequence (Q96SW2 whole entry) above
T2 sequence (Q16531 whole entry partner): as the sequence (Q16531 whole entry partner) above
T2 sequence (Q13422 whole entry): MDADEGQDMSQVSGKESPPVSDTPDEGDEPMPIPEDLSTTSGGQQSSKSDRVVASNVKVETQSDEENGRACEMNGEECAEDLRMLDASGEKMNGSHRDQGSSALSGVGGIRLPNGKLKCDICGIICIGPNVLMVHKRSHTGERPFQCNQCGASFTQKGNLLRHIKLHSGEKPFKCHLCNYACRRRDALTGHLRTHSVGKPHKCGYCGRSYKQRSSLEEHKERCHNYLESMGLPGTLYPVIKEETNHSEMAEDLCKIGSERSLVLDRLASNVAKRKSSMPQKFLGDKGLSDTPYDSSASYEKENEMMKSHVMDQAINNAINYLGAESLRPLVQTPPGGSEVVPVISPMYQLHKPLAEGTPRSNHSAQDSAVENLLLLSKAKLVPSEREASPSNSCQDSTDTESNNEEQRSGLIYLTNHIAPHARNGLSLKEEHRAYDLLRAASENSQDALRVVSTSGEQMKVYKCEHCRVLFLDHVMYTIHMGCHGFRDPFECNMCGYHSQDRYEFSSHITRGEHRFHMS

`O=C1CCC(N2Cc3cc(-c4cc(CN5CCC(Cc6ccccc6)CC5)ccn4)ccc3C2=O)C(=O)N1` (stereo not drawn) [Example 38, 3-(5-(4-((4-benzylpiperidin-1-yl)methyl)pyridin-2-yl)-1-oxoisoindolin-2-yl)piperidine-2,6-dione]: the DC50 on Helios is 0.087 µM; on Ikaros, above 10 µM. In addition, the figures for the maximal degradation (Dmax) at Helios and at Ikaros were 68% and 6%, respectively.
As for `O=C1CCC(N2Cc3cc(-c4cc(CN5CCc6ccccc6C5)ccn4)ccc3C2=O)C(=O)N1` (stereo not drawn) [Example 39, 3-(5-(4-((3,4-dihydroisoquinolin-2(1H)-yl)methyl)pyridin-2-yl)-1-oxoisoindolin-2-yl)piperidine-2,6-dione], the results for the half-maximal degradation concentration (DC50) on Helios and at Ikaros were 0.444 µM and above 10 µM, respectively. For the same compound, the Dmax at Helios was determined as 58%; at Ikaros, 6%.
On to `CN(C)C1CCN(Cc2ccnc(-c3ccc4c(c3)CN(C3CCC(=O)NC3=O)C4=O)c2)CC1` (stereo not drawn) [Example 40, 3-(5-(4-((4-(dimethylamino)piperidin-1-yl)methyl)pyridin-2-yl)-1-oxoisoindolin-2-yl)piperidine-2,6-dione], for which the 50% degradation concentration (DC50) at Helios and at Ikaros was above 10 µM each time. Further, the maximal degradation (Dmax) is 9% on Helios and 8% on Ikaros.
In the case of `NC(=O)C1CCN(Cc2ccnc(-c3ccc4c(c3)CN(C3CCC(=O)NC3=O)C4=O)c2)CC1` (stereo not drawn) [Example 41, 1-((2-(2-(2,6-dioxopiperidin-3-yl)-1-oxoisoindolin-5-yl)pyridin-4-yl)methyl)piperidine-4-carboxamide], on Helios, the DC50 was 0.727 µM and the maximal degradation (Dmax) turned out to be 80%. In addition, on Ikaros, the half-maximal degradation concentration (DC50) was above 10 µM and the maximal degradation (Dmax) was 24%.
For `O=C1CCC(N2Cc3cc(-c4cc(CN5CCC(C(c6ccccc6)c6ccccc6)CC5)ccn4)ccc3C2=O)C(=O)N1` (stereo not drawn) [Example 42, 3-(5-(4-((4-benzhydrylpiperidin-1-yl)methyl)pyridin-2-yl)-1-oxoisoindolin-2-yl)piperidine-2,6-dione], the half-maximal degradation concentration (DC50) at Helios and on Ikaros was above 10 µM each time. Moreover, the Dmax was 3% at Helios and 7% on Ikaros.
With `CN1CCCN(Cc2ccnc(-c3ccc4c(c3)CN(C3CCC(=O)NC3=O)C4=O)c2)CC1` (stereo not drawn) [Example 43, 3-(5-(4-((4-methyl-1,4-diazepan-1-yl)methyl)pyridin-2-yl)-1-oxoisoindolin-2-yl) piperidine-2,6-dione], the DC50 on Helios and at Ikaros was above 10 µM throughout. Moreover, the results for the greatest degradation seen (Dmax) on Helios and at Ikaros were 10% and 3%, respectively.
As to `CC(C)N1CCN(Cc2ccnc(-c3ccc4c(c3)CN(C3CCC(=O)NC3=O)C4=O)c2)CC1` (stereo not drawn) [Example 44, 3-(5-(4-((4-isopropylpiperazin-1-yl)methyl)pyridin-2-yl)-1-oxoisoindolin-2-yl)piperidine-2,6-dione], on Helios, the DC50 was above 10 µM and the Dmax stood at 36%. Moreover, at Ikaros, the DC50 was above 10 µM and the Dmax worked out at 12%.
Turning to `CN(C)[C@@H]1CCN(Cc2ccnc(-c3ccc4c(c3)CN(C3CCC(=O)NC3=O)C4=O)c2)C1` (stereo partly drawn) [Example 45, 3-(5-(4-(((R)-3-(dimethylamino)pyrrolidin-1-yl)methyl)pyridin-2-yl)-1-oxoisoindolin-2-yl)piperidine-2,6-dione], the half-maximal degradation concentration (DC50) on Helios and on Ikaros was above 10 µM throughout. Besides, the Dmax at Helios worked out at 43%; at Ikaros it was 6%.
`CC1CCN1Cc1ccnc(-c2ccc3c(c2)CN(C2CCC(=O)NC2=O)C3=O)c1` (stereo not drawn) [Example 46, 3-(5-(4-((2-methylazetidin-1-yl)methyl)pyridin-2-yl)-1-oxoisoindolin-2-yl)piperidine-2,6-dione]: at Helios, the DC50 amounted to 0.018 µM and the Dmax is 83%. For the same compound, at Ikaros, the DC50 was above 10 µM and the Dmax stood at 6%.
